Earlier results, collected in patent US11013708B2, “Prevention of psychotic disorders and/or treatment of psychotic symptoms” (Orygen Youth Health Research Centre, priority 2008, dated 2021).

Tests used:
[1] = tested on: first-episode psychosis patients; conditions: in vivo 1H-MRS
ultra-high-risk groups = conditions: risperidone and cognitive therapy for 6 months vs supportive counselling

SMILES	glutathione in temporal lobes [1]	efficacy of preventive intervention vs comparator (ultra-high-risk groups)
CC/C=C\C/C=C\C/C=C\C/C=C\C/C=C\CCCC(=O)O [EPA, all cis (or all z) 5,8, 11, 14, 17-eicosapentanoic acid]	can increase glutathione	–
Cc1nc2n(c(=O)c1CCN1CCC(c3noc4cc(F)ccc34)CC1)CCCC2 [risperidone]	–	significantly more effective than supportive counselling at end of intervention, but not at 12-month follow-up
